These results are taken from patent US20240317816A1, “PEPTIDES FOR IMMUNOTHERAPY” (Genevive, Inc., priority 2021, published 2024).

Experiment [1] concerns RENCA cells. As to the kind of experiment: RENCA re-challenge study. Format: in vivo, Balb/c mice. On the procedure:
Additional studies were performed to test survival and tumor volume responses to a re-challenge event. In one study, mice were allocated into dosing groups when tumors reached ˜100 mm^3. During the initial dosing study, time 0 was the first day of seven days of dosing. […] Re-implantation was completed on day 39 after dosing completion. Treated mice were tumor free for >20 days before being re-challenge. […] Tumor volume and survival was monitored as previously described. In the re-challenge experiment, time 0 is day 10 after re-challenge dosing.

For experiment [2], the system named is Unstimulated human T cells. The experiment can be described thus: Transwell T cell migration towards CXCR3 ligands. The format is cell-based. As to the method: T cell migration towards CXCR3 ligands in the presence of SG-3-00802 and SG-3-06683 was tested using a Transwell migration assay. Suboptimal concentrations of each ligand (CXCR3 ligands CXCL9, CXCL10, and CXCL11) were added to the bottom of the transwell with increasing doses of SG-3-00802 or SG-3-006683. An optimal concentration of ligand was used as positive control, as indicated in the graphs.
Unstimulated human T cells were resuspended in AIM V serum-free media, then were added to the top chamber of a […] polycarbonate Transwell insert and incubated with the indicated concentrations of the ligands and peptides in the bottom chamber for 2.5 hours at 37° C. T cells that migrated to the bottom chamber were collected, stained with anti-CD3 antibody, and counted using Beckman Coulter Cytoflex flow cytometer. 123count eBeads counting beads were added to each of the wells for obtaining the absolute cell counts.

Experiment [3] deals with T1, CCR9 (Homo sapiens, UniProt P51686).
T1 construct: expressed in transfected cells
T1 sequence (P51686 1-369): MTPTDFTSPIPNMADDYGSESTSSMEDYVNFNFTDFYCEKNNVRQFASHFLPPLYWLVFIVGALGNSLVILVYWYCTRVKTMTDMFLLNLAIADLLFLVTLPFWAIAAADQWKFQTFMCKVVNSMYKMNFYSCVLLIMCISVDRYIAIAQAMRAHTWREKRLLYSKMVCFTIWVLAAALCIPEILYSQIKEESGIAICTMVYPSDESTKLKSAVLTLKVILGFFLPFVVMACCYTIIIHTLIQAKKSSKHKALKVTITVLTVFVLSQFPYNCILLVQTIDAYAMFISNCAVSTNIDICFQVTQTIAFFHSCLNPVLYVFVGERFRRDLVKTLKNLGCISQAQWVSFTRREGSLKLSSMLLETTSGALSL
As to the kind of experiment: gpcrMAX PathHunter β-Arrestin Assay. Format: cell-based. The text has this: The PathHunter® β-Arrestin Assay monitored activation of a panel of 168 G-protein coupled receptors (GPCRs) with […] activation of the GPCR in agonist and antagonist mode.
where the test sample is the peptide, the vehicle control is DMSO (0% activity), and the control ligand is control compound (100% activity).
Peptides SG-3-00802 and SG-3-05021 were identified as an agonist, an antagonist, a PAM (Positive Allosteric Modulator), or an inverse-agonist. Agonist, antagonist, PAM, and inverse-agonist were identified according to the guidelines in Table 8. The basal activity/noise is a % activity of −20% to 20% for both agonist and antagonist modes. A PAM (Positive Allosteric Modulator) binds to a receptor, at a different site than the agonist, to change the receptor's response to the agonist. An inverse-Agonist is a binding partner with agonistic shutting down of basal activity in the cell. An antagonist antagonizes the activity of a particular binding partner.

Experiment [4] has as its system RENCA tumor model. As to the kind of experiment: CXCL10 and CD8a levels in RENCA tumor bearing mice. Format: in vivo, Balb/c mice. The conditions noted are these: 2.5 mg/kg BID peritumorally for 7d. On the procedure:
Several mechanism of action related endpoints were also measured in vivo. Balb/c mice were implanted with RENCA cells and treated with candidate lead peptides and control compounds. Dosing occurred during the 1st week only: SG-3-00802 was dosed peritumorally at 2.5 mg/kg BID for 7d, anti-PD-1 was dosed i.p. at 10 mg/kg TIW for a total of 3 doses.

In experiment [5] the target is T2, human chemokine (C-X-C motif) receptor 3 (Homo sapiens, UniProt P49682).
T2 construct: TEV protease site; Gal4-VP16 transcription factor ('Ga14-VP16' [sic]); Tango cell line; host or cells: Tango GPCR-bla U2OS
T2 sequence (P49682 1-368): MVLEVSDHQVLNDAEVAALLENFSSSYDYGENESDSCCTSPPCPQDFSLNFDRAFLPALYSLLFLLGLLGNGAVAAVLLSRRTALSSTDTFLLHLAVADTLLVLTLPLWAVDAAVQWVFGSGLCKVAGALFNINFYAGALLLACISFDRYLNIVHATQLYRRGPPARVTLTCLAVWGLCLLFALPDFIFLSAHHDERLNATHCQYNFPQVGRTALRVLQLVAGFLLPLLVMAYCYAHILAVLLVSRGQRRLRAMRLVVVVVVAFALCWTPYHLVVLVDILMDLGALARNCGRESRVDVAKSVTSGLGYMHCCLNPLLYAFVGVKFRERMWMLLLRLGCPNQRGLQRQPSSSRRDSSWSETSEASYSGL
The experiment can be described thus: Positive allosteric modulator assay method 1 (PAM1), Tango CXCR3-bla U2OS. Format: cell-based. The text has this: To assay positive allosteric modulator activity of SG-3-00802 (SEQ ID NO: 1) and SG-3-006683 in CXCR3 cell lines, the cell line Tango™ CXCR3-bla U2OS was used in a positive allosteric modulator assay with two different methods, as described below.
Tango™ CXCR3-bla U2OS cells contain the human chemokine (C-X-C motif) receptor 3 linked to a TEV protease site and a Ga14-VP16 transcription factor stably integrated into the Tango™ GPCR-bla U2OS cell line. This parental cell line stably expresses a beta-arrestin/TEV protease fusion protein and the beta-lactamase reporter gene under the control of a UAS response element. The Tango™ CXCR3-bla U2OS cells have been functionally validated for a response to I-TAC (CXCL11).
In positive allosteric modulator assay method 1 (PAM1), cells were diluted in Assay Media to an appropriate cell density and were added to the assay plate. Peptides were added at increasing concentrations (1 nM-20 mcM) to the cells in the assay plate and incubated for 30 minutes. Ligand (CXCL9, CXCL10, or CXCL11) was added at an EC20 to all wells containing test compound. The assay plate was incubated for 16 hours at 37° C. Substrate Loading Solution was added to the assay plate and incubated for 2 hours at room temperature, in the dark. The assay plate was read on a fluorescence plate reader and the data was analyzed. PAM activity was calculated as follows:
% of PAM=((Test compound−Unstimulated)/(Stimulated−Unstimulated))×100.

In the case of “MKVRPSVKPMCEKCKIIRRKGRVMVICENPKHKQRQG [SG-3-00802]”, the “rejection of newly implanted tumors” value in experiment [1] (peptide alone) and in experiment [1] (with anti-PD-1 antibody combinatorial treatment) was “rejected newly implanted tumors” in each case. Further, the “percent of mice surviving after re-challenge” value in experiment [1] (previously dosed in combination with anti-PD-1) and in experiment [1] (previously dosed with peptide alone) was “increased percent of mice surviving” each time. The “# of animals without tumor progression out of re-challenged animals per group (re-challenge study)” value in experiment [1] (re-challenge study) is listed as 2/2. Moreover, the “T cell migration to suboptimal level of ligand” value is “increased migration” in experiment [2] (CXCL9, 2.5 hours); “increased migration” in experiment [2] (CXCL10, 2.5 hours); “increased migration” in experiment [2] (CXCL11, 2.5 hours). Also, in experiment [3], the “% Agonist Activity” value amounted to 2%. In addition, in experiment [3], the “% Antagonist Activity” value is recorded as −48%. Besides, the “CD8a expression in the tumor” value in experiment [4] is given as “increase in CD8a expression”. Moreover, the “expression of CXCL10 in the tumor” value in experiment [4] is “increased expression of CXCL10 in the tumor”. Besides, the “serum levels of CXCL10” value in experiment [4] is given as “increased serum levels of CXCL10”. The “activity of CXCR3 in presence of ligand (PAM1)” value in experiment [5] (CXCL9 at EC20), in experiment [5] (CXCL10 at EC20) and in experiment [5] (CXCL11 at EC20) was “enhanced activity of CXCR3” throughout.
